Experimental data published in PubChem BioAssay (NCI).
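These data come from cells grown in 96-well plates and exposed to compound for 48 hours at five concentrations. GI50 is the concentration that inhibits growth by half. The concentration for full growth arrest is given as TGI.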

Legend:
Assay in all cases: NCI-60 cell line screen, 48 h
RPMI-8226 leukemia = tested on: RPMI-8226 leukemia
SK-MEL-28 melanoma = tested on: SK-MEL-28 melanoma
MALME-3M melanoma = tested on: MALME-3M melanoma
SK-MEL-5 melanoma = tested on: SK-MEL-5 melanoma
T-47D breast = tested on: T-47D breast
HL-60(TB) leukemia = tested on: HL-60(TB) leukemia
OVCAR-5 ovarian = tested on: OVCAR-5 ovarian
SF-539 CNS = tested on: SF-539 CNS
HS 578T breast = tested on: HS 578T breast
HCC-2998 colon = tested on: HCC-2998 colon
IGROV1 ovarian = tested on: IGROV1 ovarian
M14 melanoma = tested on: M14 melanoma
SNB-19 CNS = tested on: SNB-19 CNS
COLO 205 colon = tested on: COLO 205 colon
NCI-H226 lung = tested on: NCI-H226 lung
ACHN renal = tested on: ACHN renal
SN12C renal = tested on: SN12C renal
NCI/ADR-RES ovarian = tested on: NCI/ADR-RES ovarian
MDA-MB-435 = tested on: MDA-MB-435
NCI-H460 lung = tested on: NCI-H460 lung
CCRF-CEM leukemia = tested on: CCRF-CEM leukemia
SF-268 CNS = tested on: SF-268 CNS
SF-295 CNS = tested on: SF-295 CNS
U251 CNS = tested on: U251 CNS
OVCAR-8 ovarian = tested on: OVCAR-8 ovarian
NCI-H23 lung = tested on: NCI-H23 lung
HOP-92 NSCLC = tested on: HOP-92 NSCLC
A549 NSCLC = tested on: A549 NSCLC
SK-OV-3 ovarian = tested on: SK-OV-3 ovarian
KM12 colon = tested on: KM12 colon
A498 renal = tested on: A498 renal
OVCAR-3 ovarian = tested on: OVCAR-3 ovarian
HOP-62 NSCLC = tested on: HOP-62 NSCLC
BT-549 breast = tested on: BT-549 breast
SK-MEL-2 melanoma = tested on: SK-MEL-2 melanoma
K-562 leukemia = tested on: K-562 leukemia
NCI-H522 lung = tested on: NCI-H522 lung
DU-145 prostate = tested on: DU-145 prostate
LOX IMVI melanoma = tested on: LOX IMVI melanoma
TK-10 renal = tested on: TK-10 renal
UACC-62 melanoma = tested on: UACC-62 melanoma
SNB-75 CNS = tested on: SNB-75 CNS
OVCAR-4 ovarian = tested on: OVCAR-4 ovarian
UO-31 renal = tested on: UO-31 renal
HT29 colon = tested on: HT29 colon
MCF7 breast = tested on: MCF7 breast
PC-3 prostate = tested on: PC-3 prostate
MDA-MB-231 breast = tested on: MDA-MB-231 breast
UACC-257 melanoma = tested on: UACC-257 melanoma
MOLT-4 leukemia = tested on: MOLT-4 leukemia
CAKI-1 renal = tested on: CAKI-1 renal
SR leukemia = tested on: SR leukemia
SW-620 colon = tested on: SW-620 colon
786-0 renal = tested on: 786-0 renal

COc1ccc2c(c1)O/C(=C\c1ncc([N+](=O)[O-])n1C)C2=O
GI50 (RPMI-8226 leukemia): 1.34 µM
TGI (RPMI-8226 leukemia): 5.75 µM
GI50 (SK-MEL-28 melanoma): 0.371 µM
TGI (SK-MEL-28 melanoma): 2.55 µM
GI50 (MALME-3M melanoma): 0.379 µM
TGI (MALME-3M melanoma): 1.7 µM
GI50 (SK-MEL-5 melanoma): 0.246 µM
TGI (SK-MEL-5 melanoma): 0.837 µM
GI50 (T-47D breast): 5.46 µM
TGI (T-47D breast): > 100 µM
GI50 (HL-60(TB) leukemia): 0.331 µM
GI50 (OVCAR-5 ovarian): 1.87 µM
TGI (OVCAR-5 ovarian): 6.39 µM
GI50 (SF-539 CNS): 1.27 µM
TGI (SF-539 CNS): 3.2 µM
GI50 (HS 578T breast): 0.641 µM
TGI (HS 578T breast): > 21.9 µM
GI50 (HCC-2998 colon): 0.899 µM
TGI (HCC-2998 colon): 4.19 µM
GI50 (IGROV1 ovarian): 0.558 µM
TGI (IGROV1 ovarian): 9.86 µM
GI50 (M14 melanoma): 0.363 µM
TGI (M14 melanoma): 1.53 µM
GI50 (SNB-19 CNS): 1.18 µM
TGI (SNB-19 CNS): 6.26 µM
GI50 (COLO 205 colon): 0.363 µM
TGI (COLO 205 colon): 2.24 µM
GI50 (NCI-H226 lung): 1.43 µM
TGI (NCI-H226 lung): 4.27 µM
GI50 (ACHN renal): 0.158 µM
TGI (ACHN renal): 0.495 µM
GI50 (SN12C renal): 0.472 µM
TGI (SN12C renal): 2.09 µM
GI50 (NCI/ADR-RES ovarian): 0.584 µM
TGI (NCI/ADR-RES ovarian): 9.51 µM
GI50 (MDA-MB-435): 0.224 µM
TGI (MDA-MB-435): 0.735 µM
GI50 (NCI-H460 lung): 0.201 µM
TGI (NCI-H460 lung): 0.619 µM
GI50 (CCRF-CEM leukemia): 0.264 µM
TGI (CCRF-CEM leukemia): 2.02 µM
GI50 (SF-268 CNS): 0.268 µM
TGI (SF-268 CNS): 1.14 µM
GI50 (SF-295 CNS): 1.4 µM
TGI (SF-295 CNS): 5.31 µM
GI50 (U251 CNS): 0.812 µM
TGI (U251 CNS): 3.05 µM
GI50 (OVCAR-8 ovarian): 0.245 µM
TGI (OVCAR-8 ovarian): 1.94 µM
GI50 (NCI-H23 lung): 0.257 µM
TGI (NCI-H23 lung): 1.32 µM
GI50 (HOP-92 NSCLC): 0.555 µM
TGI (HOP-92 NSCLC): 4.05 µM
GI50 (A549 NSCLC): 0.561 µM
TGI (A549 NSCLC): 4.54 µM
GI50 (SK-OV-3 ovarian): 1.56 µM
TGI (SK-OV-3 ovarian): 6.86 µM
GI50 (KM12 colon): 0.776 µM
TGI (KM12 colon): 2.81 µM
GI50 (A498 renal): 1.2 µM
TGI (A498 renal): 2.68 µM
GI50 (OVCAR-3 ovarian): 0.376 µM
TGI (OVCAR-3 ovarian): 1.88 µM
GI50 (HOP-62 NSCLC): 1.1 µM
TGI (HOP-62 NSCLC): 4.18 µM
GI50 (BT-549 breast): 0.684 µM
TGI (BT-549 breast): 2.94 µM
GI50 (SK-MEL-2 melanoma): 1.13 µM
TGI (SK-MEL-2 melanoma): 3.7 µM
GI50 (K-562 leukemia): 0.414 µM
GI50 (NCI-H522 lung): 0.266 µM
TGI (NCI-H522 lung): 0.927 µM
GI50 (DU-145 prostate): 0.285 µM
TGI (DU-145 prostate): 0.794 µM
GI50 (LOX IMVI melanoma): 0.256 µM
TGI (LOX IMVI melanoma): 0.889 µM
GI50 (TK-10 renal): 1.26 µM
TGI (TK-10 renal): > 20 µM
GI50 (UACC-62 melanoma): 0.848 µM
TGI (UACC-62 melanoma): 2.41 µM
GI50 (SNB-75 CNS): 0.974 µM
TGI (SNB-75 CNS): 3.78 µM
GI50 (OVCAR-4 ovarian): 2.52 µM
TGI (OVCAR-4 ovarian): > 100 µM
GI50 (UO-31 renal): 0.334 µM
TGI (UO-31 renal): 1.89 µM
GI50 (HT29 colon): 0.291 µM
TGI (HT29 colon): 1.39 µM
GI50 (MCF7 breast): 0.495 µM
TGI (MCF7 breast): 9.37 µM
GI50 (PC-3 prostate): 2.24 µM
TGI (PC-3 prostate): > 29.2 µM
GI50 (MDA-MB-231 breast): 0.256 µM
TGI (MDA-MB-231 breast): 1.38 µM
GI50 (UACC-257 melanoma): 0.59 µM
TGI (UACC-257 melanoma): 2.16 µM
GI50 (MOLT-4 leukemia): 0.0453 µM
GI50 (CAKI-1 renal): 0.202 µM
TGI (CAKI-1 renal): 0.544 µM
GI50 (SR leukemia): 0.0294 µM
GI50 (SW-620 colon): 0.178 µM
TGI (SW-620 colon): 1.31 µM
GI50 (786-0 renal): 0.805 µM
TGI (786-0 renal): 3.89 µM
